pIC50: −log10 of the molar value. Activity calls are given as the source filed them. The rule behind the calls is not given here.
Assays:
NCI-H2122 [1] = assay: Antitumor activity against human NCI-H2122 cells harboring KRAS G12C mutation xenografted in Balb/c nude mouse assessed as reduction in tumor volume at 100 mg/kg,ip qd by caliper measurement analysis; type: functional, organism-based
NCI-H2122 [2] = assay: Antitumor activity against human NCI-H2122 cells harboring KRAS G12C mutation xenografted in Balb/c nude mouse assessed as reduction in tumor volume at 100 mg/kg,ip qd co-treated with RMC-627 at 10 mg/kg,ip qw by caliper measurement analysis; type: functional, organism-based
[3] = Toxicity in Balb/c nude mouse xenografted with human NCI-H2122 cells harboring KRAS G12C mutation assessed as body weight loss at 100 mg/kg,ip qd co-treated with RMC-627 at 10 mg/kg,ip qw; type: organism-based; conditions: in vivo
NCI-H2122 [4] = assay: Antitumor activity against human NCI-H2122 cells harboring KRAS G12C mutation xenografted in Balb/c nude mouse assessed as induction of apoptosis by measuring caspase-3 level at 100 mg/kg,ip qd co-treated with RMC-627 at 10 mg/kg,ip qw by immunostaining based microscopy; type: functional, organism-based
NCI-H2122 [5] = assay: Antitumor activity against human NCI-H2122 cells harboring KRAS G12C mutation xenografted in Balb/c nude mouse assessed as induction of apoptosis by measuring caspase-3 level at 100 mg/kg,ip qd by immunostaining based microscopy; type: functional, organism-based
mTORC1 [6] = biological target: T1, mTORC1 (Homo sapiens, UniProt P42345+Q8N122+Q9BVC4); type: cell-based, MDA-MB-468
Mus musculus [7] = assay: In vivo inhibition of mTORC1 in human MCF7 cells harboring PIK3CA […] mutation xenografted in Balb/c nude mouse assessed as inhibition of tumor p4EBP1 level at 1 mg/kg,ip and measured at 4 hrs by MSD analysis; type: functional, organism-based
Mus musculus [8] = assay: In vivo inhibition of mTORC1 in human MCF7 cells harboring PIK3CA […] mutation xenografted in Balb/c nude mouse assessed as inhibition of tumor p4EBP1 level at 1 mg/kg,ip and measured after 24 hrs by MSD analysis; type: functional, organism-based
mTORC1 [9] = biological target: T1, mTORC1; type: cell-based, MDA-MB-468; remark: listed apart in the source
cells = type: cell-based; conditions: Homo sapiens, MDA-MB-468
Mus musculus [10] = assay: In vivo inhibition of mTORC1 in human MCF7 cells harboring PIK3CA […] mutation xenografted in Balb/c nude mouse assessed as inhibition of tumor p4EBP1 level at 5 mg/kg,po and measured upto 48 hrs by MSD analysis; type: functional, organism-based

| Compound | pIC50 (mTORC1 [6]) | pIC50 (mTORC1 [9]) | pIC50 (cells) | other results |
| --- | --- | --- | --- | --- |
| C=CC(=O)N1CCN(c2nc(=O)n(-c3c(C)ccnc3C(C)C)c3nc(-c4c(O)cccc4F)c(F)cc23)[C@@H](C)C1 [SOTORASIB] | – | – | – | Activity (NCI-H2122 [1]): inactive; Activity (NCI-H2122 [2]): Active; Activity [3]: Non-Toxic; Activity (NCI-H2122 [4]): Active; Activity (NCI-H2122 [5]): inactive |
| CO[C@H]1C[C@@H]2CC[C@@H](C)[C@@](O)(O2)C(=O)C(=O)N2CCCC[C@H]2C(=O)O[C@H]([C@H](C)C[C@@H]2CC[C@@H](OCCCCc3cn(CCOCCOCCOCCOCCOCCOCCOCCOCCC(=O)NCCCCn4nc(-c5ccc6oc(N)nc6c5)c5c(N(C)C)ncnc54)nn3)[C@H](OC)C2)CC(=O)[C@H](C)/C=C(\C)[C@@H](O)[C@@H](OC)C(=O)[C@H](C)C[C@H](C)/C=C/C=C/C=C/1C | < 6.00 | – | – | – |
| CC(C)n1nc(-c2ccc3oc(N)nc3c2)c2c(N)ncnc21 | – | – | – | inhibition (Mus musculus [7]): Active; inhibition (Mus musculus [8]): inactive |
| CO[C@H]1C[C@@H]2CC[C@@H](C)[C@@](O)(O2)C(=O)C(=O)N2CCCC[C@H]2C(=O)O[C@H]([C@H](C)C[C@@H]2CC[C@@H](OCCO)[C@H](OC)C2)CC(=O)[C@H](C)/C=C(\C)[C@@H](O)[C@@H](OC)C(=O)[C@H](C)C[C@H](C)/C=C/C=C/C=C/1C [EVEROLIMUS] | < 6.00 | – | – | inhibition (Mus musculus [10]): inactive |
| CC(C)n1nc(-c2cc3cc(O)ccc3[nH]2)c2c(N)ncnc21 | – | – | 7.42 | – |

Continued, in another order:

| pIC50 (mTORC1 [6]) | pIC50 (mTORC1 [9]) | pIC50 (cells) | Compound | other results |
| --- | --- | --- | --- | --- |
| 8.80 | 9.77 | 7.46 | CO[C@H]1C[C@@H]2CC[C@@H](C)[C@@](O)(O2)C(=O)C(=O)N2CCCC[C@H]2C(=O)O[C@H]([C@H](C)C[C@@H]2CC[C@@H](OC(=O)NCCOCCOCCOCCOCCOCCOCCOCCOCCC(=O)N3CCc4cc(Cn5nc(-c6ccc7oc(N)nc7c6)c6c(N)ncnc65)ccc4C3)[C@H](OC)C2)C[C@@H](O)[C@H](C)/C=C(\C)[C@@H](O)[C@@H](OC)C(=O)[C@H](C)C[C@H](C)/C=C/C=C/C=C/1C [RMC-5552] | – |
| 8.85 | 9.31 | 8.08 | CO[C@H]1C[C@@H]2CC[C@@H](C)[C@@](O)(O2)C(=O)C(=O)N2CCCC[C@H]2C(=O)O[C@H]([C@H](C)C[C@@H]2CC[C@@H](OC(=O)NCCOCCOCCOCCOCCOCCOCCOCCOCCC(=O)NCCCCn3nc(-c4ccc5oc(N)nc5c4)c4c(N)ncnc43)[C@H](OC)C2)C[C@@H](OC)[C@H](C)/C=C(\C)[C@@H](O)[C@@H](OC)C(=O)[C@H](C)C[C@H](C)/C=C/C=C/C=C/1C | – |
| 9.01 | 9.72 | 7.46 | CO[C@H]1C[C@@H]2CC[C@@H](C)[C@@](O)(O2)C(=O)C(=O)N2CCCC[C@H]2C(=O)O[C@H]([C@H](C)C[C@@H]2CC[C@@H](OC(=O)NCCOCCOCCOCCOCCOCCOCCOCCOCCC(=O)NCCS(=O)(=O)c3ccc(C(=O)N4CCOc5ccc(-c6ccc(N)nc6)cc5C4)c(C)c3F)[C@H](OC)C2)C[C@@H](O)[C@H](C)/C=C(\C)[C@@H](O)[C@@H](OC)C(=O)[C@H](C)C[C@H](C)/C=C/C=C/C=C/1C | – |
| 8.89 | 9.62 | 7.89 | CO[C@H]1C[C@@H]2CC[C@@H](C)[C@@](O)(O2)C(=O)C(=O)N2CCCC[C@H]2C(=O)O[C@H]([C@H](C)C[C@@H]2CC[C@@H](OC(=O)NCCOCCOCCOCCOCCOCCOCCOCCOCCC(=O)NCCCCn3nc(-c4ccc5oc(N)nc5c4)c4c(N)ncnc43)[C@H](OC)C2)C[C@@H](O)[C@H](C)/C=C(\C)[C@@H](O)[C@@H](OC)C(=O)[C@H](C)C[C@H](C)/C=C/C=C/C=C/1C | – |
